Test results: paper PMC4138991, “Building a Better Dynasore: The Dyngo Compounds Potently Inhibit Dynamin and Endocytosis” (Traffic (Copenhagen, Denmark), 2013)
“Also recorded” adds a separate entry of the source.

Tests used:
[1] = system: synaptosomes; assay: Glutamate release from synaptosomes (4-AP stimulated); format: cell-based, rat; details: 20 μM, 30 min pretreatment, 3 mM 4-AP
Procedure: Release of glutamate from synaptosomes was performed as described previously 60, with minor changes. The assay was carried out at 37°C in a Perkin Elmer LS50 fluorimeter. Control (1% DMSO) and 4a‐treated samples were incubated in the presence of the compound for 30 min prior to stimulation of glutamate release. For each sample, 1 mg of crude P2 synaptosomes was diluted in 2 mL of HEPES‐buffered Krebs‐like buffer, either containing 1 mM EGTA (zero Ca^2+) or 1 mM EGTA plus 3 mM […] (2 mM free Ca^2+). NAPD^+ (3 mM) and glutamic acid dehydrogenase (50 U) were added and allowed to incubate for 15 min to allow residual glutamate in the sample to be metabolized. 4‐AP (3 mM) was subsequently added to stimulate glutamate release, which was recorded over a 5‐min period. Readings of fluorescence were taken every 2 seconds. All treatment conditions were carried out in zero Ca^2+ and 2 mM Ca^2+ conditions with the zero Ca^2+ measurement subtracted from the 2 mM measurement for each time point. […] Each treatment was carried out in duplicate within a single experiment and each independent experiment was carried out three times on separate days using synaptosomes prepared from fresh rat brain tissue ([…]).

[2] = system: cultured CGNs; assay: Fluorescent dextran uptake (ADBE) in CGNs; format: cell-based, rat; details: 30 μM, 15 min
Procedure: Granule neuron cultures were prepared from the cerebella of 7‐day‐old rat pups as previously described 57. In all experiments, neurons were used between 8 and 10 days in vitro.
Uptake of tetramethyrhodamine‐dextran (40 kDa) into nerve terminals of CGNs was monitored as described previously 40. Briefly, cells were left for 10 min in incubation medium and then stimulated with a train of 800 action potentials (80 Hz for 10 seconds) in the presence of tetramethyrhodamine‐dextran (50 μM). Dyngo compound 4a (30 μM) was present for 15 min prior to and including action potential stimulation. Dextran loading was determined by the number of fluorescent puncta in a defined field of view ([…]) using a 20× air objective at 550‐nm excitation and >575‐nm emission. Threshold analysis was performed to discount regions too large to represent individual nerve terminals (diameter greater than […]). The number of dextran puncta per field for each experiment (usually 10 fields of view per experiment) was averaged and subtracted from background fluorescence. To ensure that the density of nerve terminals was consistent between fields and experimental conditions, experiments were performed on the same set of cultures.

[3] = biological target: dynamin I binding to SH3 domains of grb2, amphiphysin I, endophilin I (Homo sapiens, UniProt Q05193); assay: Pull-down of dynamin I with SH3 domains; details: 10, 40 and 100 µM 4a
dynamin I binding to SH3 domains of grb2, amphiphysin I, endophilin I, sequence (Q05193 whole entry, the tested form may be a part): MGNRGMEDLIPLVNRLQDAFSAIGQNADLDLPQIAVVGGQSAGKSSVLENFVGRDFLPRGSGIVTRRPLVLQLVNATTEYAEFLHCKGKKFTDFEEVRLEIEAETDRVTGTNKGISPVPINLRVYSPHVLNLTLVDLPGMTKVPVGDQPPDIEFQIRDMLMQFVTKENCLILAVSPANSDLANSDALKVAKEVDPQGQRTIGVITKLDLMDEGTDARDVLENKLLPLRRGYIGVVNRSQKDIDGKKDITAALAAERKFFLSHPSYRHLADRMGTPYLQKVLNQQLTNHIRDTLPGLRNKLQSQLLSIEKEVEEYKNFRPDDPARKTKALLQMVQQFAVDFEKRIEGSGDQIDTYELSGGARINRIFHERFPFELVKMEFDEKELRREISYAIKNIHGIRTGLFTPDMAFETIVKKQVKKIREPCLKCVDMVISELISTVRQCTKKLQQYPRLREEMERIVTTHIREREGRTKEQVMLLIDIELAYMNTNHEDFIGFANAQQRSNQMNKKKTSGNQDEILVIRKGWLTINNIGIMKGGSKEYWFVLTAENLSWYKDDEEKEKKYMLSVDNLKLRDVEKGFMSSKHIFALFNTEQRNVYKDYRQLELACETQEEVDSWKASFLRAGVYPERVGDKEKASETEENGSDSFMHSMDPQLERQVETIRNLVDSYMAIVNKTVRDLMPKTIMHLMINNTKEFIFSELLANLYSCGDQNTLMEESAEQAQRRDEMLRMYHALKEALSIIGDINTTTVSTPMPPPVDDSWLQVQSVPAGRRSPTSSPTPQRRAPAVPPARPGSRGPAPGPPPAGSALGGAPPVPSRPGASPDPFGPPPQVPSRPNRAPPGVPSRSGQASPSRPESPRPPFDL
Procedure: Recombinant human dynamin I was expressed in insect cells (SF21). Cells were lysed and sonicated in 20 mM HEPES buffer with 250 mM NaCl. The lysates were diluted in 20 mM HEPES buffer alone to obtain a final 50 mM NaCl concentration. This diluted lysate was used for pull-downs with 6 µg of GST-amphiphysin1 SH3, GST-endophilin SH3 or GST-grb2 SH3 (all recombinantly expressed in bacteria) immobilised on glutathione sepharose beads. Incubations were done in the presence or absence of 10, 40 and 100 µM 4a for 1 hr at 10°C. The GSH beads were then washed three times with ice cold PBS and the bound proteins were separated on 12% SDS-PAGE gels and visualised using Coomassie Blue.

[4] = biological target: microtubule-stimulated dynamin I (Ovis aries, UniProt A0ACI6PDC7); assay: Microtubule-stimulated (helical) dynamin I GTPase assay; format: biochemical, sheep; details: presence of Tween-80
microtubule-stimulated dynamin I, sequence (A0ACI6PDC7 entry or part of it): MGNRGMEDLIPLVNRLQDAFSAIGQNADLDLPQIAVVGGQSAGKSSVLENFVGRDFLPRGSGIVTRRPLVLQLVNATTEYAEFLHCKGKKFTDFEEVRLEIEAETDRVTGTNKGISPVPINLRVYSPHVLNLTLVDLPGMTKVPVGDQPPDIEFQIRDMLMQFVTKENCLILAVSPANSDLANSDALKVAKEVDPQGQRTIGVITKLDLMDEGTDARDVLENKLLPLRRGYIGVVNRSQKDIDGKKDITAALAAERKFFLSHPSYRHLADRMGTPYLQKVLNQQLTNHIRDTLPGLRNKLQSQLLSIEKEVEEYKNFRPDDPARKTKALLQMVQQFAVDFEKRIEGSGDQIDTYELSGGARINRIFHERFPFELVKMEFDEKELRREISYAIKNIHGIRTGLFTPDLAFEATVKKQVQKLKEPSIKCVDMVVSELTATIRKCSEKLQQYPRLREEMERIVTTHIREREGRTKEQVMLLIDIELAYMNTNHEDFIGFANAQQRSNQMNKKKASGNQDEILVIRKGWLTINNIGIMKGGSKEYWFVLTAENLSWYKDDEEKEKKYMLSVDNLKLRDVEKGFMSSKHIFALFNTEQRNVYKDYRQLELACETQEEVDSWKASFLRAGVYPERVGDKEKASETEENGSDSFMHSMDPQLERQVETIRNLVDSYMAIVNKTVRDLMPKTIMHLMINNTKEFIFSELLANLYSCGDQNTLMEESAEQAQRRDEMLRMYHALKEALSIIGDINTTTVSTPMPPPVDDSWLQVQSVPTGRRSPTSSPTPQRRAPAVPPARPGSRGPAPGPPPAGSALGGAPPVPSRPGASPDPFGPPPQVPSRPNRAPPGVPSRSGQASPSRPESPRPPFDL
Procedure: The Malachite Green colorimetric GTPase assay was as described 10. Dynamin I activity was measured in its SAI activity state or was stimulated by three different methods. As each stimulus activates dynamin to different extents, each assay required different dynamin concentrations. First, maximal dynamin activity was stimulated by sonicated PS liposomes 10. Purified dynamin I (10–20 nM, diluted in: 6 mM Tris–HCl, 20 mM NaCl and 0.01% Tween 80, pH 7.4) was incubated in 96‐well plates in GTPase buffer (5 mM Tris–HCl, 10 mM NaCl, 2 mM Mg^2+, 0.05% Tween 80, pH 7.4, 1 µg/mL leupeptin and 0.1 mM PMSF) and GTP 0.3 mM in the presence of test compound for 30 min at 37°C in a final assay volume of 150 μL. Reactions were terminated with 10 μL of 0.5 M ethylenediaminetetraacetic acid (EDTA) pH 7.4 and Malachite Green solution (40 μL: 2% w/v ammonium molybdate tetrahydrate, 0.15% w/v malachite green and 4 M HCl) was added for 5 min. Second, dynamin (20 nM) was stimulated by 10 µg/mL of taxol‐stabilized preformed bovine brain microtubules (Cytoskeleton, Inc) using the same protocol. […] Finally, dynamin (500 nM) SAI activity was measured using high concentrations of dynamin, which promote its cooperative self‐assembly into rings (but not helices) 26. […] After the Vmax and Km values were determined, the data were transformed using the Lineweaver–Burke equation, 1/v = 1/Vmax + (Km/Vmax)(1/[S]).

[5] = system: grb2-stimulated dynamin; design: method as in PMID 16740485; details: no detergent, read-out: previously estimated IC50 for dynasore; cited from earlier work
[6] = system: Calyx of Held; design: method as in PMID 18066059; details: 100 μM, 5-min preincubation; cited from earlier work

Compound | Ca2+-dependent glutamate release [1] | maximum block of ADBE measured by dextran uptake [2] [%] | effect on dynamin I binding to SH3 domains [3] | block of microtubule-stimulated dynamin activity [4] | IC50 [5] [µM] | SVE at the Calyx of Held [6]
O=C(N/N=C/c1cc(O)c(O)cc1O)c1cc2ccccc2cc1O [4a, (E)-3-Hydroxy-N'-(2,4,5-trihydroxybenzylidene) -2-naphthohydrazide] | decrease in the release of glutamate only after 45 seconds | > 80 | did not disrupt the binding; also recorded: no effect |  |  | 
O=C(N/N=C/c1ccc(O)c(O)c1)c1cc2ccccc2cc1O [Dynasore, (E)-N'-(3,4-Dihydroxybenzylidene)-3-hydroxy-2-naphthohydrazide] |  |  |  | did not block | ~15 | inhibit SVE
